Earlier results as cited in PubChem BioAssay AID1259409 (Chemical Carcinogenesis Research Information System (CCRIS), 2018).

System: rodent chemically induced tumor inhibition, incidence and multiplicity
Test: CCRIS tumor inhibitor studies

Structure (SMILES): CC1=C(/C=C/C(C)=C/C=C/C(C)=C\C(=O)Nc2nn[nH]n2)C(C)(C)CCC1
- tumour outcome (control, treated, inhibition, significance) (Carcinogen: N-BUTYL-N-(4-HYDROXYBUTYL)NITROSAMINE, 3817-11-6, Dose [Inhibitor]: 1.5 MMOL/KG DIET DAILY FOR 159 D STARTING 1 WK AFTER THE FINAL CARCINOGEN DOSE (STUDY DURATION: 216 D), Route [Inhibitor]: ORAL, Species: MOUSE, Strain/Sex: BDF/MALE, Target Tissue: Type of Lesion: URINARY BLADDER: TRANSITIONAL CELL CARCINOMA, Dose [Carcinogen]: 7.5 MG 1/WK FOR 8 WK, Promoter: NONE USED): 29/98 (30%), 26/100 (26%), 13%, not significant
- tumour outcome (control, treated, inhibition, significance) (Carcinogen: N-BUTYL-N-(4-HYDROXYBUTYL)NITROSAMINE, 3817-11-6, Dose [Inhibitor]: 1.5 MMOL/KG/D IN DIET FOR 159 D STARTING 1 WK POST CARCINOGEN TREATMENT (STUDY DURATION: 216 D), Route [Inhibitor]: ORAL, Species: MOUSE, Strain/Sex: BDF/MALE, Target Tissue: Type of Lesion: URINARY BLADDER: TRANSITIONAL CELL CARCINOMA, Dose [Carcinogen]: 7.5 MG 1/WK FOR 8 WK, Promoter: NONE USED): 29/98 (30%), 26/100 (26%), 13%, not significant

Structure (SMILES): C=CCN=C=S
- tumour outcome (control, treated, inhibition, significance) (Carcinogen: 4-(METHYLNITROSAMINO)-1-(3-PYRIDYL)-1-BUTANONE, 64091-91-4, Dose [Inhibitor]: 0, 1 UMOL ONCE 2 HR PRIOR TO CARCINOGEN DOSE (STUDY DURATION: 16 WK), Route [Inhibitor]: GAVAGE, Species: MOUSE, Strain/Sex: STRAIN-A/FEMALE, Target Tissue: Type of Lesion: LUNG: ADENOMA, Dose [Carcinogen]: 10 UMOL IN 0.1 ML SALINE ONCE, Promoter: NONE USED): 100%, 100%, 0%, not significant
- tumour outcome (control, treated, inhibition, significance) (Carcinogen: 4-(METHYLNITROSAMINO)-1-(3-PYRIDYL)-1-BUTANONE, 64091-91-4, Dose [Inhibitor]: 0, 5 UMOL ONCE 2 HR PRIOR TO CARCINOGEN DOSE (STUDY DURATION: 16 WK), Route [Inhibitor]: GAVAGE, Species: MOUSE, Strain/Sex: STRAIN-A/FEMALE, Target Tissue: Type of Lesion: LUNG: ADENOMA, Dose [Carcinogen]: 10 UMOL IN 0.1 ML SALINE ONCE, Promoter: NONE USED): 100%, 100%, 0%, not significant

Structure (SMILES): CC(C)=CCC/C(C)=C/C=O
- outcome (Carcinogen: DIMETHYLBENZANTHRACENE, 57-97-6, Dose [Inhibitor]: 0, 1 UMOL IN ACETONE 2/WK ADMINISTERED PRIOR TO EACH PROMOTER DOSE FOR 20 WK (STUDY DURATION: 21 WK), Route [Inhibitor]: DERMAL, Species: MOUSE, Strain/Sex: SKH/HR1/FEMALE, Target Tissue: Type of Lesion: SKIN: TUMOR, Dose [Carcinogen]: 0.1 UMOL IN 0.1 ML ACETONE ONCE, Promoter: TPA, 16561-29-8): 88%, 72%, 18%, p 0.05 at 10 wk of promotion: 96%, 96%, 0%, not calculated at 15

Structure (SMILES): C=C(NC(=O)Cc1ccccc1OC)C(=O)O
- outcome (Carcinogen: X-RAY, Dose [Inhibitor]: 0, 100 MG/KG 15 MIN PRIOR TO EACH IRRADIATION (STUDY DURATION: 14 MO), Route [Inhibitor]: INTRAPERITONEAL, Species: MOUSE, Strain/Sex: C57BL/MALE AND FEMALE, Target Tissue: Type of Lesion: THYMUS GLAND: LYMPHOMA, Dose [Carcinogen]: 175 RADS 1/WK FOR 4 WK (250 KV X-RAYS, PHILLIPS RT 200/250), Promoter: NONE USED): 45%, 45%, 0%, not significant at 5 mo; 93%, >90%, <3%, not calculated
- outcome (Carcinogen: X-RAY, Dose [Inhibitor]: 0, 200 MG/KG 15 MIN PRIOR TO SECOND AND FOURTH IRRADIATION (STUDY DURATION 14 MO), Route [Inhibitor]: INTRAPERITONEAL, Species: MOUSE, Strain/Sex: C57BL/MALE AND FEMALE, Target Tissue: Type of Lesion: THYMUS GLAND: LYMPHOMA, Dose [Carcinogen]: 175 RADS 1/WK FOR 4 WK (250 KV X-RAYS, PHILLIPS RT 200/250), Promoter: NONE USED): 45%, 0%, 100%, not calculated at 5 mo; 93%, 40%, 57%, not calculated at 8 mo
- outcome (Carcinogen: X-RAY, Dose [Inhibitor]: 0, 400 MG/KG ONCE 15 MIN PRIOR TO FIRST IRRADIATION (STUDY DURATION: 14 MO), Route [Inhibitor]: INTRAPERITONEAL, Species: MOUSE, Strain/Sex: C57BL/MALE AND FEMALE, Target Tissue: Type of Lesion: THYMUS GLAND: LYMPHOMA, Dose [Carcinogen]: 175 RADS 1/WK FOR 4 WK (250 KV X-RAYS, PHILLIPS RT 200/250), Promoter: NONE USED): 45%, 10%, 78%, not calculated at 5 mo; 93%, >90%, <3%, not calculated at 8 mo

Structure (SMILES): CC1(C)[C@@H](O)CC[C@]2(C)[C@H]3C(=O)C=C4[C@@H]5C[C@@](C)(C(=O)O)CC[C@]5(C)CC[C@@]4(C)[C@]3(C)CC[C@@H]12
- outcome (Carcinogen: 7,12-DIMETHYLBENZ[A]ANTHRACENE, 57-97-6, Dose [Inhibitor]: 0, 10 UMOL IN 0.2 ML DMSO/ACETONE (1:2) 1/D BEGINNING 7 D PRIOR TO CARCINOGEN DOSE (STUDY DURATION: 16 WK), Route [Inhibitor]: DERMAL, Species: MOUSE, Strain/Sex: SENCAR/FEMALE, Target Tissue: Type of Lesion: SKIN: TUMOR, Dose [Carcinogen]: 40 NMOL IN 0.2 ML ACETONE ONCE): 100%, 45%, 55%, not calculated at 9 wk; 100%, 85%, 15%, not calculated at 16 wk
- outcome (Carcinogen: 7,12-DIMETHYLBENZ[A]ANTHRACENE, 57-97-6, Dose [Inhibitor]: 0, 30 UMOL IN DMSO/ACETONE (1:2) 30 MIN PRIOR TO EACH PROMOTER DOSE (STUDY DURATION: 16 WK), Route [Inhibitor]: DERMAL, Species: MOUSE, Strain/Sex: SENCAR/FEMALE, Target Tissue: Type of Lesion: SKIN: TUMOR, Dose [Carcinogen]: 40 NMOL IN 0.2 ML ACETONE ONCE): 100%, 40%, 60%, not calculated at 9 wk; 100%, 80%, 20%, not calculated at 16 wk
- tumour outcome (control, treated, inhibition, significance) (Carcinogen: 7,12-DIMETHYLBENZ[A]ANTHRACENE, 57-97-6, Dose [Inhibitor]: 10 UMOL APPLIED 40 MINUTES PRIOR TO PROMOTER DOSE (STUDY DURATION: 20 WK), Route [Inhibitor]: DERMAL, Species: MOUSE, Strain/Sex: ICR/FEMALE, Target Tissue: Type of Lesion: SKIN: PAPILLOMA, Dose [Carcinogen]: 100 UG ONCE): 100%, 40%, 60%, p<0.05
- tumour outcome (control, treated, inhibition, significance) (Carcinogen: AZOXYMETHANE, 25843-45-2, Dose [Inhibitor]: 0, 1200 PPM IN DIET BEGINNING 1 WK PRIOR TO CARCINOGEN TREATMENT FOR DURATION OF STUDY (STUDY DURATION: 54 WK), Route [Inhibitor]: ORAL, Species: RAT, Strain/Sex: F344/MALE, Target Tissue: Type of Lesion: COLON: ADENOCARCINOMA, Dose [Carcinogen]: 15 MG/KG/BW 1/WK FOR 2 WK, Promoter: NONE USED): 58%, 78%, -35%, not calculated
- tumour outcome (control, treated, inhibition, significance) (Carcinogen: AZOXYMETHANE, 25843-45-2, Dose [Inhibitor]: 0, 1200 PPM IN DIET BEGINNING 1 WK PRIOR TO CARCINOGEN TREATMENT FOR DURATION OF STUDY (STUDY DURATION: 54 WK), Route [Inhibitor]: ORAL, Species: RAT, Strain/Sex: F344/MALE, Target Tissue: Type of Lesion: COLON: ADENOMA, Dose [Carcinogen]: 15 MG/KG/BW 1/WK FOR 2 WK, Promoter: NONE USED): 6%, 6%, 0%, not calculated
- tumour outcome (control, treated, inhibition, significance) (Carcinogen: AZOXYMETHANE, 25843-45-2, Dose [Inhibitor]: 0, 2400 PPM IN DIET BEGINNING 1 WK PRIOR TO CARCINOGEN TREATMENT FOR DURATION OF STUDY (STUDY DURATION: 54 WK), Route [Inhibitor]: ORAL, Species: RAT, Strain/Sex: F344/MALE, Target Tissue: Type of Lesion: COLON: ADENOMA, Dose [Carcinogen]: 15 MG/KG/BW 1/WK FOR 2 WK, Promoter: NONE USED): 6%, 6%, 0%, not significant
- tumour outcome (control, treated, inhibition, significance) (Carcinogen: AZOXYMETHANE, 25843-45-2, Dose [Inhibitor]: 0, 2400 PPM IN DIET BEGINNING 1 WK PRIOR TO CARCINOGEN TREATMENT OF DURATION OF STUDY (STUDY DURATION: 54 WK), Route [Inhibitor]: ORAL, Species: RAT, Strain/Sex: F344/MALE, Target Tissue: Type of Lesion: COLON: ADENOCARCINOMA, Dose [Carcinogen]: 15 MG/KG/BW 1/WK FOR 2 WK, Promoter: NONE USED): 58%, 53%, 9%, not calculated

Structure (SMILES): CCCCC1C(=O)N(c2ccccc2)N(c2ccccc2)C1=O
- tumour outcome (control, treated, inhibition, significance) (Carcinogen: N-NITROSOBIS(2-OXOPROPYL)AMINE, 60599-38-4, Dose [Inhibitor]: 0, 0.25% IN DIET FOR 27 WK BEGINNING POST LAST CARCINOGEN DOSE (STUDY DURATION: 32 WK), Route [Inhibitor]: ORAL, Species: HAMSTER, Strain/Sex: SYRIAN/FEMALE, Target Tissue: Type of Lesion: PANCREAS: ADENOCARCINOMA, Dose [Carcinogen]: 10 MG/KG 1/WK FOR 5 WK, Promoter: NONE USED): 20/28 (71%), 7/19 (37%), 48%, p<0.05
